Results from the supplement of paper PMC10132981, “Formate overflow drives toxic folate trapping in MTHFD1 inhibited cancer cells” (Nature Metabolism, 2023).
± gives the standard deviation of the averaged measurements.

Assays:
[1] = system: HCT116; assay: cell viability relative to lowest-dose well (resazurin, 96 h); higher = more viable; conditions: RPMI + 10% FBS
How it was run: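 In 384-well plates, 50 µl RPMI with 10% FBS plus a metabolite supplement received 500 HCT116 or 1,000 SW620 cells per well. Dilution series of compounds, taken from 10 mM DMSO stocks, were added and the plates kept 96 h at 37 °C, 5% CO2. Viability, reported as percent of the lowest-dose well across independent replicate cultures, was measured as resazurin-to-resorufin conversion by fluorescence at 595 nm.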

[2] = system: SW620; assay: cell viability relative to vehicle (resazurin, 96 h); higher = more viable
Method: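 SW620 WT or MTHFD2-/- cells were treated for 96 h with a compound dilution series (log10 M) in RPMI with normal or dialysed FBS. Viability was read by resazurin and is given as % of vehicle.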

CN(Cc1cnc2nc(N)nc(N)c2n1)c1ccc(C(=O)N[C@@H](CCC(=O)O)C(=O)O)cc1 [methotrexate]
Conditions	cell viability [%]
[1], 3.59 µM, metabolite supplement: vehicle	16.2 ± 2.8
[1], 10 µM, metabolite supplement: 50uM thymidine	31.5 ± 4.2
[1], 10 µM, metabolite supplement: 50uM thymidine + 250uM hypoxanthine	98.1 ± 4.1
[1], 10 µM, metabolite supplement: 250uM hypoxanthine	15.3 ± 3.3
[1], 10 µM, metabolite supplement: vehicle	16.4 ± 2.2
[2], log10 compound concentration (M): -5, supplement / serum: Hypoxanthine + AICAr 10μM, base medium: RPMI + dialysed FBS	5.12 ± 1.1
[2], log10 compound concentration (M): -5, supplement / serum: Hypoxanthine + AICAr 30μM, base medium: RPMI + dialysed FBS	4.87 ± 0.68
[2], log10 compound concentration (M): -5, supplement / serum: Hypoxanthine + AICAr 50μM, base medium: RPMI + dialysed FBS	5.34 ± 1.1
[2], log10 compound concentration (M): -5, supplement / serum: Hypoxanthine + AICAr 100μM, base medium: RPMI + dialysed FBS	5.12 ± 1.7
[2], log10 compound concentration (M): -5, supplement / serum: Hypoxanthine, base medium: RPMI + dialysed FBS	4.67 ± 1.5
[2], log10 compound concentration (M): -5, supplement / serum: RPMI + Dialyzed FBS + 50μM Hypoxanthine, base medium: RPMI-1640	6.47 ± 1.1
[2], log10 compound concentration (M): -5, supplement / serum: RPMI + Dialyzed FBS, base medium: RPMI-1640	5.07 ± 1.9
[2], log10 compound concentration (M): -5, supplement / serum: RPMI + Normal FBS, base medium: RPMI-1640	19.1 ± 5.3
[2], log10 compound concentration (M): -5, supplement / serum: Vehicle, base medium: RPMI + dialysed FBS	4.01 ± 0.78
[2], log10 compound concentration (M): -5.47712, supplement / serum: Hypoxanthine + AICAr 10μM, base medium: RPMI + dialysed FBS	5.68 ± 0.95
[2], log10 compound concentration (M): -5.47712, supplement / serum: Hypoxanthine + AICAr 30μM, base medium: RPMI + dialysed FBS	4.86 ± 1.6
[2], log10 compound concentration (M): -5.47712, supplement / serum: Hypoxanthine + AICAr 50μM, base medium: RPMI + dialysed FBS	6.17 ± 1
[2], log10 compound concentration (M): -5.47712, supplement / serum: Hypoxanthine + AICAr 100μM, base medium: RPMI + dialysed FBS	5.44 ± 1.4
[2], log10 compound concentration (M): -5.47712, supplement / serum: Hypoxanthine, base medium: RPMI + dialysed FBS	5.19 ± 1.6
[2], log10 compound concentration (M): -5.47712, supplement / serum: RPMI + Dialyzed FBS + 50μM Hypoxanthine, base medium: RPMI-1640	7.16 ± 0.52
[2], log10 compound concentration (M): -5.47712, supplement / serum: RPMI + Dialyzed FBS, base medium: RPMI-1640	5.32 ± 0.52
[2], log10 compound concentration (M): -5.47712, supplement / serum: RPMI + Normal FBS, base medium: RPMI-1640	22.3 ± 5.8
[2], log10 compound concentration (M): -5.47712, supplement / serum: Vehicle, base medium: RPMI + dialysed FBS	3.96 ± 1.2
[2], log10 compound concentration (M): -5.95424, supplement / serum: Hypoxanthine + AICAr 10μM, base medium: RPMI + dialysed FBS	6.05 ± 1.3
[2], log10 compound concentration (M): -5.95424, supplement / serum: Hypoxanthine + AICAr 30μM, base medium: RPMI + dialysed FBS	4.88 ± 1.4
[2], log10 compound concentration (M): -5.95424, supplement / serum: Hypoxanthine + AICAr 50μM, base medium: RPMI + dialysed FBS	6.61 ± 0.99
[2], log10 compound concentration (M): -5.95424, supplement / serum: Hypoxanthine + AICAr 100μM, base medium: RPMI + dialysed FBS	6.46 ± 0.98
[2], log10 compound concentration (M): -5.95424, supplement / serum: Hypoxanthine, base medium: RPMI + dialysed FBS	4.87 ± 2
[2], log10 compound concentration (M): -5.95424, supplement / serum: RPMI + Dialyzed FBS + 50μM Hypoxanthine, base medium: RPMI-1640	7.47 ± 1.9
[2], log10 compound concentration (M): -5.95424, supplement / serum: RPMI + Dialyzed FBS, base medium: RPMI-1640	5.35 ± 1.1
[2], log10 compound concentration (M): -5.95424, supplement / serum: RPMI + Normal FBS, base medium: RPMI-1640	14.7 ± 1.4
[2], log10 compound concentration (M): -5.95424, supplement / serum: Vehicle, base medium: RPMI + dialysed FBS	4.17 ± 1.3
[2], log10 compound concentration (M): -6.43136, supplement / serum: Hypoxanthine + AICAr 10μM, base medium: RPMI + dialysed FBS	6.29 ± 1.6
[2], log10 compound concentration (M): -6.43136, supplement / serum: Hypoxanthine + AICAr 30μM, base medium: RPMI + dialysed FBS	5.47 ± 0.35
[2], log10 compound concentration (M): -6.43136, supplement / serum: Hypoxanthine + AICAr 50μM, base medium: RPMI + dialysed FBS	7.05 ± 1.2
